{"source": "ChEMBL document CHEMBL4311992", "about": "“Discovery of 3-(((9H-purin-6-yl)amino)methyl)-4,6-dimethylpyridin-2(1H)-one derivatives as novel tubulin polymerization inhibitors for treatment of cancer” (Eur J Med Chem, 2019)", "key": {"Homo sapiens [1]": {"species_on_record": "Homo sapiens", "assay": "Inhibition of recombinant human DDR1 V833L mutant (492 to end residues) assessed as residual activity at 10 uM using KKKSPGEYVNIEFG as substrate measured after 40 mins in presence of [gamma33P]ATP by scintillation counting method"}, "[2]": {"molecular_target": "Serine/threonine-protein kinase 26 (Homo sapiens) (UniProt Q9P289)", "sequence (Q9P289 2-416 limits assumed)": "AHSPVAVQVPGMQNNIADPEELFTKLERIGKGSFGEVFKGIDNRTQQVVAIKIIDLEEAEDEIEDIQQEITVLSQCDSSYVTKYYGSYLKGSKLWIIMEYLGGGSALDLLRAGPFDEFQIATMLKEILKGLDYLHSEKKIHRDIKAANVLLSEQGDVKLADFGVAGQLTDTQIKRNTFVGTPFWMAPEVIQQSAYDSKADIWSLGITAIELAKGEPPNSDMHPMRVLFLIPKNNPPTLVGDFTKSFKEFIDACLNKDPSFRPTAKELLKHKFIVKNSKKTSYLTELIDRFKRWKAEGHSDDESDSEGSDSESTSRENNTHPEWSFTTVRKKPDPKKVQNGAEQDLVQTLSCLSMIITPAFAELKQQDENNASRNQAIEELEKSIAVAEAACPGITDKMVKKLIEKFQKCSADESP", "assay": "Inhibition of recombinant human MST4 (4 to 304 residues) assessed as residual activity at 10 uM using RLGRDKYKTLRQIRQ as substrate measured after 40 mins in presence of [gamma33P]ATP by scintillation counting method"}, "HCT-116 [3]": {"test_system": "HCT-116", "assay": "Antitumor activity against human HCT116 cells xenografted in nude BALB/c mouse assessed as tumor growth inhibition at 40 mg/kg, po administered once daily for 4 weeks measured post-last dose relative to control", "type": "functional", "settings": "HCT-116, po, 672 h, read-out: TGI"}, "[4]": {"molecular_target": "Proto-oncogene tyrosine-protein kinase receptor Ret (Homo sapiens) (UniProt P07949)", "assay": "Inhibition of human Ret (658 to end residues) using KKKSPGEYVNIEFG as substrate measured after 40 mins in presence of [gamma33P]ATP by scintillation counting method", "parameters": "scale not given: the % may be the effect or the level left"}, "[5]": {"molecular_target": "Ephrin type-B receptor 4 (Homo sapiens) (UniProt P54760)", "sequence (P54760 whole entry)": "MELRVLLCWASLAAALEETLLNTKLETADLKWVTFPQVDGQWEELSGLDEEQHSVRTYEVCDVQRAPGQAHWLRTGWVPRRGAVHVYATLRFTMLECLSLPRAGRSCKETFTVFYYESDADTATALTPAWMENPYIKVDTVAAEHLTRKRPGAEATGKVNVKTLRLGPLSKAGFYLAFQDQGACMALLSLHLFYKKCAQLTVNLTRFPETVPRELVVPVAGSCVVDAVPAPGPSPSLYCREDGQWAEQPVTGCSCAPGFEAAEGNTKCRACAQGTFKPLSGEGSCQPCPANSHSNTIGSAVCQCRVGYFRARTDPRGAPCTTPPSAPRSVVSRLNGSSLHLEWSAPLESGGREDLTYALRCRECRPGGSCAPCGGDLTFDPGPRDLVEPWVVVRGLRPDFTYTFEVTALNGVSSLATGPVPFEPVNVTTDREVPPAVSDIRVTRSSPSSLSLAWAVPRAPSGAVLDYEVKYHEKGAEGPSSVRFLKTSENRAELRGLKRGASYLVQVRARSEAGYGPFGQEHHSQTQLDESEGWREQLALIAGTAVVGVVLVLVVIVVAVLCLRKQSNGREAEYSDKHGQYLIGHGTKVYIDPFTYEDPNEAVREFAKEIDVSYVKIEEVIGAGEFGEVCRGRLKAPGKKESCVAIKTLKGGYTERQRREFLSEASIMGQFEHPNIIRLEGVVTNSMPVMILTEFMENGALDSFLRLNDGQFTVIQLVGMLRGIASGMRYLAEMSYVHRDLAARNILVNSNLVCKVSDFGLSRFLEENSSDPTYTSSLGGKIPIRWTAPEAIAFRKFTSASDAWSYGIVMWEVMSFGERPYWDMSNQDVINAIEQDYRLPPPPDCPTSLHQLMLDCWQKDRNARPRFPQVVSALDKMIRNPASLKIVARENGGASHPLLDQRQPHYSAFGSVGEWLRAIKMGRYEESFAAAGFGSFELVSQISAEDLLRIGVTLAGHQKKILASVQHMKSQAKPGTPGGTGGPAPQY", "assay": "Inhibition of recombinant human EphB4 (561 to end residues) assessed as residual activity at 10 uM using poly (Glu, Tyr) 4:1 as substrate measured after 40 mins in presence of [gamma33P]ATP by scintillation counting method"}, "[6]": {"molecular_target": "Serine/threonine-protein kinase B-raf (Homo sapiens) (UniProt P15056)", "sequence (P15056 whole entry)": "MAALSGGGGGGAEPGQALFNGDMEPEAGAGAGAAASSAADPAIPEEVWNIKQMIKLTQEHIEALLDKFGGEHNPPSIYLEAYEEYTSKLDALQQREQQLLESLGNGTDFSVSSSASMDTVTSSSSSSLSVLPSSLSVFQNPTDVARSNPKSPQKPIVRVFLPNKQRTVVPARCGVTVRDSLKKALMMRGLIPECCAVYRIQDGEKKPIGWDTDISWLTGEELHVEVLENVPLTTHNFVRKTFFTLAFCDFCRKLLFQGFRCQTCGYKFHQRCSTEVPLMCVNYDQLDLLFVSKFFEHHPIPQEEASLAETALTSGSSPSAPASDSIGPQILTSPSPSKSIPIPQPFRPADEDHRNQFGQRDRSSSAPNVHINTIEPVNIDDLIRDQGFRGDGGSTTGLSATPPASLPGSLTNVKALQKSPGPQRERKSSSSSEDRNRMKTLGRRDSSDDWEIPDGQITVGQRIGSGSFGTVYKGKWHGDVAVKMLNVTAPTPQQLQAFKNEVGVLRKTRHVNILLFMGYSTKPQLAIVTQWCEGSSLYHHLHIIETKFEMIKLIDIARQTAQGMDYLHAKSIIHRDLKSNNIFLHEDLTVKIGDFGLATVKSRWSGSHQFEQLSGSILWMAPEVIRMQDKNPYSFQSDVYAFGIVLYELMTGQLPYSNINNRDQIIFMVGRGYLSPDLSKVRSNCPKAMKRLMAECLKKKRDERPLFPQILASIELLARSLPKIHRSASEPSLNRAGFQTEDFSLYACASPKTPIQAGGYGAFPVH", "assay": "Inhibition of recombinant human BRAF (416 to end residues) assessed as residual activity at 10 uM using myelin basic protein as substrate measured after 40 mins in presence of [gamma33P]ATP by scintillation counting method"}, "SW-620": {"test_system": "SW-620", "assay": "Induction of apoptosis in human SW620 cells assessed as increase in cleaved caspase3 expression up to 200 nM measured after 48 hrs by Western blot analysis", "type": "functional, cell-based"}, "[7]": {"molecular_target": "Activin receptor type-1 (Homo sapiens) (UniProt Q04771)", "sequence (Q04771 whole entry)": "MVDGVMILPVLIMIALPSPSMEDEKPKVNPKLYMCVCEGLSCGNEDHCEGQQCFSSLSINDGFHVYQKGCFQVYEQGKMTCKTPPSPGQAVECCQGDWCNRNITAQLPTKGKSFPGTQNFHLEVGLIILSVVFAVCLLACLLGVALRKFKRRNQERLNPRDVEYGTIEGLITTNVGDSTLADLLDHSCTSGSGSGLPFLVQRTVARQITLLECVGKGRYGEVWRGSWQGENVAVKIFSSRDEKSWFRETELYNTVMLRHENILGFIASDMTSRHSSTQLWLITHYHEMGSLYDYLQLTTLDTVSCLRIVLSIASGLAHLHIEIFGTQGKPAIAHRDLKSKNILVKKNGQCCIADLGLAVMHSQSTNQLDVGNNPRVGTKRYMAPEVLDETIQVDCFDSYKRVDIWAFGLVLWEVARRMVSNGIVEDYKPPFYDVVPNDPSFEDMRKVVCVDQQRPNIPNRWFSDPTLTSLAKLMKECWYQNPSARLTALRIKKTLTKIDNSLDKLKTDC", "assay": "Inhibition of recombinant human ALK2 (142 to end residues) assessed as residual activity at 10 uM using casein as substrate measured after 40 mins in presence of [gamma33P]ATP by scintillation counting method"}, "[8]": {"molecular_target": "Calcium/calmodulin-dependent protein kinase type II subunit delta (Homo sapiens) (UniProt Q13557)", "sequence (Q13557 whole entry)": "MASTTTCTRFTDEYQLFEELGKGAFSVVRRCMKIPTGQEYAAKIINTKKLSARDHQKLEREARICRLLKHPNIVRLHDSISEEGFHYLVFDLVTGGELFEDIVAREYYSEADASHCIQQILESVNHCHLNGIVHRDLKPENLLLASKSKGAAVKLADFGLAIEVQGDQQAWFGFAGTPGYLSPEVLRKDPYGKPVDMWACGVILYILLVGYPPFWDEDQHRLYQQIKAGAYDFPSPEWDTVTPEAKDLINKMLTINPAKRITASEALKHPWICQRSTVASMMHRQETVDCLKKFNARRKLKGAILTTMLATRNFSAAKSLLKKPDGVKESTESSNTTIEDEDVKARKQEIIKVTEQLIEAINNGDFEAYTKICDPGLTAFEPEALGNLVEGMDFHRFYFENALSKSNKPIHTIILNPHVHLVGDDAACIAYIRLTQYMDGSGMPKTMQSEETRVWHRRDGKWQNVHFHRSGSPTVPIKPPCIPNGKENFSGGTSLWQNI", "assay": "Inhibition of recombinant full-length human CaMK2delta assessed as residual activity at 10 uM using calmodulin as substrate measured after 40 mins in presence of [gamma33P]ATP by scintillation counting method"}, "[9]": {"molecular_target": "Proto-oncogene tyrosine-protein kinase Src (Homo sapiens) (UniProt P12931)", "assay": "Inhibition of recombinant full-length human SRC assessed as residual activity at 10 uM using Cdc2 peptide as substrate measured after 40 mins in presence of [gamma33P]ATP by scintillation counting method"}, "[10]": {"test_system": "Proto-oncogene tyrosine-protein kinase Src (Homo sapiens), P12931 [T341M]", "assay": "Inhibition of recombinant full-length human Src T341M mutant assessed as residual activity at 10 uM using GGEEEEYFELVKKKK as substrate measured after 40 mins in presence of [gamma33P]ATP by scintillation counting method"}, "[11]": {"molecular_target": "Ephrin type-B receptor 1 (Homo sapiens) (UniProt P54762)", "assay": "Inhibition of recombinant human EphB1 (564 to end residues) assessed as residual activity at 10 uM using KVEKIGEGTYGVVYK as substrate measured after 40 mins in presence of [gamma33P]ATP by scintillation counting method"}, "[12]": {"test_system": "Mast/stem cell growth factor receptor Kit (Homo sapiens), P10721 [V560G]", "assay": "Inhibition of recombinant human c-Kit V560G mutant (544 to end residues) assessed as residual activity at 10 uM using GGMEDIYFEFMGGKKK as substrate measured after 40 mins in presence of [gamma33P]ATP by scintillation counting method"}, "Mus musculus": {"species_on_record": "Mus musculus", "assay": "Inhibition of recombinant full-length mouse PI3K p110alpha/p85alpha E542K mutant assessed as residual activity at 10 uM using phosphatidylinositol-4, 5-bisphosphate as substrate measured after 40 mins by HTRF assay"}, "[13]": {"molecular_target": "Serine/threonine-protein kinase SIK3 (Homo sapiens) (UniProt Q9Y2K2)", "assay": "Inhibition of human SIK3 (1 to 307 residues) using KKKVSRSGLYRSPSMPENLNRPR as substrate measured after 40 mins in presence of [gamma33P]ATP by scintillation counting method", "parameters": "scale not given: the % may be the effect or the level left"}, "Homo sapiens [14]": {"species_on_record": "Homo sapiens", "assay": "Inhibition of recombinant full-length human JNK2alpha2 S51N mutant assessed as residual activity at 10 uM using ATF2 as substrate measured after 40 mins in presence of [gamma33P]ATP by scintillation counting method"}, "[15]": {"molecular_target": "Tyrosine-protein kinase ITK/TSK (Homo sapiens) (UniProt Q08881)", "sequence (Q08881 whole entry, the tested form may be a part)": "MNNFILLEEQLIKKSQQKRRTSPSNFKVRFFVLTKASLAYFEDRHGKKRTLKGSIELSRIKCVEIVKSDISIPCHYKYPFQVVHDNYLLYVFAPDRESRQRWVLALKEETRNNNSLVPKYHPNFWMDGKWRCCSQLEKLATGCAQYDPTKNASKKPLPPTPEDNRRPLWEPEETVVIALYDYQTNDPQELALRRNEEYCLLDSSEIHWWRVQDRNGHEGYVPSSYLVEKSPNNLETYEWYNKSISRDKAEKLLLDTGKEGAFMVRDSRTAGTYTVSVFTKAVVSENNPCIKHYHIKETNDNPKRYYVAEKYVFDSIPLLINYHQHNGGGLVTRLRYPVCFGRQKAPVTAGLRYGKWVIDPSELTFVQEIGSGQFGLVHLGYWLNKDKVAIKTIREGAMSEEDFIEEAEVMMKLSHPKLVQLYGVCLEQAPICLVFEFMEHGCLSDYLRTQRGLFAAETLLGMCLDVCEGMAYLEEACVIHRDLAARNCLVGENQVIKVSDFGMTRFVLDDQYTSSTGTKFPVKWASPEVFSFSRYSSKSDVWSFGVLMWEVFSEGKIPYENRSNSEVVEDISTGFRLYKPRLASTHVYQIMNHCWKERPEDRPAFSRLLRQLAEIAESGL", "assay": "Inhibition of recombinant human ITK (352 to 617 residues) assessed as residual activity at 10 uM using myelin basic protein as substrate measured after 40 mins in presence of [gamma33P]ATP by scintillation counting method"}, "HCT-116 [16]": {"test_system": "HCT-116", "assay": "Induction of apoptosis in human HCT116 cells assessed as late apoptotic cells at 25 nM measured after 48 hrs by Annexin V-FITC/propidium iodide staining-based flow cytometry (reference value: 3.87%)", "type": "functional"}, "[17]": {"molecular_target": "Tyrosine-protein kinase Fgr (Homo sapiens) (UniProt P09769)", "sequence (P09769 2-529 limits assumed)": "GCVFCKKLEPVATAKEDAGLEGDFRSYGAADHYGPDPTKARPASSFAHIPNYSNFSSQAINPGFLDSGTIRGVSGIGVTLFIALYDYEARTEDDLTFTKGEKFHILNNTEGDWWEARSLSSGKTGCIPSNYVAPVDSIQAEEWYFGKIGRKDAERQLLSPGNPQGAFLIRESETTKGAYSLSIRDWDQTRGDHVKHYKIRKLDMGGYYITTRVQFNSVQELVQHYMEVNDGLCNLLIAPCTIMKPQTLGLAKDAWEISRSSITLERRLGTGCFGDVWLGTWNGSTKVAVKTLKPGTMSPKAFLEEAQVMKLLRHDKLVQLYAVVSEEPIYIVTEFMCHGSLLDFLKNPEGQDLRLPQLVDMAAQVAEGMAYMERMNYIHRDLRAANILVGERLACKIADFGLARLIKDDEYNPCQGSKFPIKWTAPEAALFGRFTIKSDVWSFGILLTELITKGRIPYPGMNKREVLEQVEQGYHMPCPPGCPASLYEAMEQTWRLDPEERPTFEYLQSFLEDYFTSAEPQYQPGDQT", "assay": "Inhibition of recombinant human FGR (2 to end residues) assessed as residual activity at 10 uM using poly(Glu, Tyr) 4:1 as substrate measured after 40 mins in presence of [gamma33P]ATP by scintillation counting method"}, "[18]": {"molecular_target": "Beta-adrenergic receptor kinase 1 (Homo sapiens) (UniProt P25098)", "sequence (P25098 whole entry)": "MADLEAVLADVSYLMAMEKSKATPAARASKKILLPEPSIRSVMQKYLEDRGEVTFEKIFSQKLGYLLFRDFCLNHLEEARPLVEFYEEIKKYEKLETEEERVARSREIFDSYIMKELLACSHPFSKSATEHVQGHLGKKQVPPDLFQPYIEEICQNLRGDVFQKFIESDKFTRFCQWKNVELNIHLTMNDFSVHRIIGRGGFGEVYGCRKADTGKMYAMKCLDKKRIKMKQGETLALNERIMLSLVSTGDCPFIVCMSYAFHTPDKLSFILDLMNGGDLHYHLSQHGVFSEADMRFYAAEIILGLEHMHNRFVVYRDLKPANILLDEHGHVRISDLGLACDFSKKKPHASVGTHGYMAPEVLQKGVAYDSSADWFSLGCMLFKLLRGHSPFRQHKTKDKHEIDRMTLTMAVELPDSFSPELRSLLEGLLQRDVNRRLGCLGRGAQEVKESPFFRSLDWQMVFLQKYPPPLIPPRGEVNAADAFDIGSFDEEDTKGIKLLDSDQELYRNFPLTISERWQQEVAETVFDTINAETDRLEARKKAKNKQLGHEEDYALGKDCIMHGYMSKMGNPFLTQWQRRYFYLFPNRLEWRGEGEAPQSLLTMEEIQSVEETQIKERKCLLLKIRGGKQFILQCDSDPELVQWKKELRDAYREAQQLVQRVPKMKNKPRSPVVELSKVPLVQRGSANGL", "assay": "Inhibition of recombinant full-length human GRK2 assessed as residual activity at 10 uM using casein as substrate measured after 40 mins in presence of [gamma33P]ATP by scintillation counting method"}, "[19]": {"molecular_target": "Mitogen-activated protein kinase kinase kinase 9 (Homo sapiens) (UniProt P80192)", "assay": "Inhibition of recombinant human MLK1 (134 to 414 residues) assessed as residual activity at 10 uM using casein as substrate measured after 40 mins in presence of [gamma33P]ATP by scintillation counting method"}, "Tubulin (Homo sapiens)": {"molecular_target": "Tubulin (Homo sapiens) (UniProt P68371+Q9H4B7+P0DPH7+P68366+Q13509+Q71U36+P04350+Q3ZCM7+P07437+P68363+Q9BQE3+Q6PEY2+Q13885+Q9BVA1+Q9BUF5)", "assay": "Disruption of microtubule network in human HCT116 cells assessed as microtubule condensation at 50 nM incubated for 18 hrs by FITC/DAPI staining-based confocal microscopic analysis", "type": "cell-based"}, "[20]": {"molecular_target": "BDNF/NT-3 growth factors receptor (Homo sapiens) (UniProt Q16620)", "assay": "Inhibition of human TrkB (455 to end residues) using poly(Glu, Tyr) 4:1 as substrate measured after 40 mins in presence of [gamma33P]ATP by scintillation counting method", "parameters": "scale not given: the % may be the effect or the level left"}}, "note": "Active and inactive are the calls of the source. No cut-off for these calls is given here."}
{"smiles": "Cc1cc(C)c(CNc2nc(Cl)nc3c2ncn3C2CCCC2)c(=O)[nH]1", "values": [{"measurement": "Activity", "setting": "Homo sapiens [1]", "value": 114, "unit": "%"}, {"measurement": "Activity", "setting": "[2]", "value": 132, "unit": "%"}, {"measurement": "inhibition in vivo at 40 mg/kg", "setting": "HCT-116 [3]", "value": 39.9, "unit": "%"}, {"measurement": "Activity", "setting": "[4]", "value": 100, "unit": "%"}, {"measurement": "Activity", "setting": "[5]", "value": 102, "unit": "%"}, {"measurement": "Activity", "setting": "[6]", "value": 122, "unit": "%"}, {"measurement": "Activity", "setting": "SW-620", "value": "Active"}, {"measurement": "Activity", "setting": "[7]", "value": 106, "unit": "%"}, {"measurement": "Activity", "setting": "[8]", "value": 120, "unit": "%"}, {"measurement": "Activity", "setting": "[9]", "value": 130, "unit": "%"}, {"measurement": "Activity", "setting": "[10]", "value": 122, "unit": "%"}, {"measurement": "Activity", "setting": "[11]", "value": 104, "unit": "%"}, {"measurement": "Activity", "setting": "[12]", "value": 95.5, "unit": "%"}, {"measurement": "Activity", "setting": "Mus musculus", "value": 95, "unit": "%"}, {"measurement": "Activity", "setting": "[13]", "value": 119, "unit": "%"}, {"measurement": "Activity", "setting": "Homo sapiens [14]", "value": 103, "unit": "%"}, {"measurement": "Activity", "setting": "[15]", "value": "63 to 75", "unit": "%"}, {"measurement": "Activity", "setting": "HCT-116 [16]", "value": 17.1, "unit": "%"}, {"measurement": "Activity", "setting": "[17]", "value": 94.5, "unit": "%"}, {"measurement": "Activity", "setting": "[18]", "value": 102, "unit": "%"}, {"measurement": "Activity", "setting": "[19]", "value": 104, "unit": "%"}, {"measurement": "Activity", "setting": "Tubulin (Homo sapiens)", "value": "Active"}, {"measurement": "Activity", "setting": "[20]", "value": 126, "unit": "%"}]}
